Columns and labels:
TF-1 cells [1] = assay: Cell growth; format: cell-based, human; details: read-out: cell growth IC50, medium with GM-CSF, 5 days
TF1/SHP2^E69K cells [2] = assay: Cell growth in GM-CSF free medium; format: cell-based, human; details: read-out: cell growth IC50, 5 days
[3] = test system: SHP2-knocked out TF-1 cell lines (TF1/KO1, TF1/KO2); assay: Cell growth and cell lysate analysis in SHP2 knockout cells; format: cell-based, human; details: medium with GM-CSF
[4] = test system: MV4-11 myeloid leukemia cells; assay: Cell growth; format: cell-based; details: read-out: cell growth IC50; MV4-11 cells; 5 days
TF1/SHP2^E69K cells [5] = assay: Immunoblot analysis of cell lysates; format: cell-based, human; details: 2 days of SHP099 treatment
TF1/SHP2^E76K cells [6] = assay: Immunoblot analysis of cell lysates; format: cell-based, human; details: 2 days of SHP099 treatment
MV4-11 cells = assay: Immunoblot analysis of cell lysates; format: cell-based
TF1/SHP2^E69K cells [7] = assay: Methylcellulose colony formation assay; format: cell-based, human; details: methylcellulose culture, 10 µM SHP099, day 7
TF1/SHP2^E76K cells [8] = assay: Methylcellulose colony formation assay; format: cell-based, human; details: methylcellulose culture, 10 µM SHP099, day 7
TF-1 cells [9] = assay: Immunoblot analysis of cell lysates; format: cell-based, human
TF1/SHP2^A72V cells = assay: Immunoblot analysis of cell lysates; format: cell-based, human; details: 2 days of SHP099 treatment
TF1/SHP2^D61Y cells = assay: Immunoblot analysis of cell lysates; format: cell-based, human; details: 2 days of SHP099 treatment

SMILES: CC1(N)CCN(c2cnc(-c3cccc(Cl)c3Cl)c(N)n2)CC1 [SHP099]
- IC50 (TF-1 cells [1]): 1730 ± 520 nM
- IC50 (TF1/SHP2^E69K cells [2]): 1460 ± 460 nM
- effects in SHP2-knocked out TF-1 cell lines [3]: little effects
- IC50 [4]: 320 ± 110 nM
- Bcl-XL level (TF1/SHP2^E69K cells [5]): reduced
- PARP cleavage (TF1/SHP2^E69K cells [5]): induction
- pERK1/2 level (TF1/SHP2^E69K cells [5]): reduced
- Bcl-XL level (TF1/SHP2^E76K cells [6]): little effect
- PARP cleavage (TF1/SHP2^E76K cells [6]): did not induce
- pERK1/2 level (TF1/SHP2^E76K cells [6]): little effect
- Bcl-XL level (MV4-11 cells): reduced
- PARP cleavage (MV4-11 cells): induced
- pERK1/2 level (MV4-11 cells): reduced
- GM-CSF hypersensitivity (TF1/SHP2^E69K cells [7]): lost
- cytokine-independent colonies (TF1/SHP2^E69K cells [7]): eliminated
- GM-CSF hypersensitivity (TF1/SHP2^E76K cells [8]): did not affect
- cytokine-independent colonies (TF1/SHP2^E76K cells [8]): little effect
- Bcl-XL level (TF-1 cells [9]): reduced
- PARP cleavage (TF-1 cells [9]): induced
- active ERK (TF-1 cells [9]): inhibited
- Bcl-XL level (TF1/SHP2^A72V cells): little effect
- PARP cleavage (TF1/SHP2^A72V cells): did not induce
- pERK1/2 level (TF1/SHP2^A72V cells): little effect
- Bcl-XL level (TF1/SHP2^D61Y cells): little effect
- PARP cleavage (TF1/SHP2^D61Y cells): did not induce
- pERK1/2 level (TF1/SHP2^D61Y cells): little effect
